Drawing on US20230416238A1, “N-[(1,3-BENZOXAZOL-2-YL)-HETEROCYCLE]AMIDE DERIVATIVES FOR THE TREATMENT AND PROPHYLAXIS OF HEPATITIS B VIRUS INFECTION” (Hoffmann-La Roche Inc., priority 2020, published 2023), this text covers IC50 and CC50 for 25 compounds.

Bounds are passed on as bounds.

What all share (assay type): cell-based
One data set relates to HBsAg. Put plainly: PHH HBV natural infection assay, HBsAg (alphalisa). Conditions: Hepatitis B virus, Hepatocyte, read-out: HBsAg IC50. Put shortly:
(§1)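 Primary human hepatocytes infected with HBV at 200 GE/cell plus 4% PEG8000 for 24 h, then sandwich-cultured 72 h in medium with 1% DMSO. Compound applied twice at 72-h intervals; supernatant HBsAg and HBeAg quantified by AlphaLISA.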

A further data set deals with HBeAg. Put plainly: PHH HBV natural infection assay, HBeAg (alphalisa). Conditions: Hepatitis B virus, Hepatocyte, read-out: HBeAg IC50. In outline:
as §1

Data set [1] in a line: Cytotoxicity in PHH natural infection assay (Cell Counting Kit-8). Conditions: HBV-infected primary human hepatocytes, CCK8. In outline: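 HBV-infected primary human hepatocytes (200 GE/cell, 4% PEG8000, 24 h), then sandwich-cultured 72 h. Cells dosed at varying concentrations for two 72-hour cycles, with medium refreshed. Cytotoxicity read by CCK-8 at end of treatment.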
(Tetrazolium assays rely on reduction of a dye to a coloured formazan, in cell work by metabolically active cells.)

One may read the IC50 as the concentration needed to halve the response being measured. The CC50 is the concentration giving 50% cytotoxicity. Low values mean harm at low concentration, high ones better tolerance by the cells. In the case of `CS(=O)(=O)N1CCC(C(=O)NCC2CCN(c3nc4cc(Cl)ccc4o3)CC2)C1` (stereo not drawn) [Example 13, N-[[1-(5-chloro-1,3-benzoxazol-2-yl)-4-piperidyl]methyl]-1-methylsulfonyl-pyrrolidine-3-carboxamide], the IC50 with HBsAg is 9.37 µM; in the data set with HBeAg, 8.5 µM. The CC50 at 144 h in data set [1] is above 10 µM.

For `N=S(=O)(CC1CC1)c1ccc(C(=O)NC2CC3(C2)CN(c2nc4cc(Cl)ccc4o2)C3)o1` (stereo not drawn) [Example 57, N-[2-(5-chloro-1,3-benzoxazol-2-yl)-2-azaspiro[3.3]heptan-6-yl]-5-(cyclopropylmethylsulfonimidoyl)furan-2-carboxamide], the IC50 in the data set with HBsAg was determined as 0.996 µM; in the data set on HBeAg, 0.953 µM. In addition, the CC50 at 144 h in data set [1] was above 100 µM.

For `O=C(NC1CC2(C1)CN(c1nc3cc(Cl)ccc3o1)C2)c1ccc(C(F)(F)F)o1` [Example 42, N-[2-(5-chloro-1,3-benzoxazol-2-yl)-2-azaspiro[3.3]heptan-6-yl]-5-(trifluoromethyl)furan-2-carboxamide], the IC50 in the data set with HBsAg was 5.66 µM; with HBeAg, 4.67 µM. Also, the CC50 at 144 h in data set [1] was above 100 µM.

Take `C[S@@](=N)(=O)c1ccc(C(=O)NC2CC3(C2)CN(c2nc4cc(Cl)ccc4o2)C3)o1` [Example 63, N-[2-(5-chloro-1,3-benzoxazol-2-yl)-2-azaspiro[3.3]heptan-6-yl]-5-[(R)-methylsulfonimidoyl]furan-2-carboxamide]: the IC50 with HBsAg is 2.47 µM; in the data set on HBeAg, 1.42 µM. The compound also gave a CC50 at 144 h in data set [1] above 100 µM.

As for `CCOC(=O)NC1CC2(C1)CN(c1nc3cc(Cl)ccc3o1)C2` [Example 21, Ethyl N-[2-(5-chloro-1,3-benzoxazol-2-yl)-2-azaspiro[3.3]heptan-6-yl]carbamate], the results for the half-maximal inhibitory concentration (IC50) with HBsAg and in the data set on HBeAg were 7.15 µM and 5.24 µM, respectively. Moreover, the CC50 at 144 h in data set [1] was above 100 µM.

Regarding `CC(C)(O)C(=O)NC1CC2(C1)CN(c1nc3cc(Cl)ccc3o1)C2` [Example 29, N-[2-(5-chloro-1,3-benzoxazol-2-yl)-2-azaspiro[3.3]heptan-6-yl]-2-hydroxy-2-methyl-propanamide], the IC50 came out at 7.13 µM in the data set with HBsAg and 7.37 µM in the data set with HBeAg. Moreover, the cytotoxic concentration (CC50) at 144 h in data set [1] is above 100 µM.

For `O=C(NC1CC2(C1)CN(c1nc3cc(Cl)ccc3o1)C2)C1CS(=O)(=O)C1` [Example 34, N-[2-(5-chloro-1,3-benzoxazol-2-yl)-2-azaspiro[3.3]heptan-6-yl]-1,1-dioxo-thietane-3-carboxamide], the IC50 in the data set with HBsAg was found to be 5.5 µM; with HBeAg, 4.48 µM. This compound gave a CC50 at 144 h in data set [1] above 100 µM.

Consider `O=C(NCC1CCN(c2nc3cc(Cl)ccc3o2)CC1)c1ccc(C(F)(F)F)o1` [Example 7, N-[[1-(5-chloro-1,3-benzoxazol-2-yl)-4-piperidyl]methyl]-5-(trifluoromethyl)furan-2-carboxamide], for which the IC50 in the data set on HBsAg was 3.83 µM; with HBeAg, 3.45 µM. The same compound displayed a half-maximal cytotoxic concentration (CC50) at 144 h in data set [1] of 96.7 µM.

For the compound `O=C(NC1CCC2(CC1)CCN(c1nc3cc(Cl)ccc3o1)CC2)c1ccc(C(F)(F)F)o1` [Example 115, N-[3-(5-chloro-1,3-benzoxazol-2-yl)-3-azaspiro[5.5]undecan-9-yl]-5-(trifluoromethyl)furan-2-carboxamide], the IC50 came out at 2.92 µM in the data set with HBsAg and 2.64 µM in the data set on HBeAg. The compound further showed a CC50 at 144 h in data set [1] above 100 µM.

On to `CS(=O)(=O)Cc1ccc(C(=O)NC2CCC3(CC2)CCN(c2nc4cc(Cl)ccc4o2)CC3)o1` [Example 112, N-[3-(5-chloro-1,3-benzoxazol-2-yl)-3-azaspiro[5.5]undecan-9-yl]-5-(methylsulfonylmethyl)furan-2-carboxamide], for which the IC50 was found to be 3.68 µM in the data set with HBsAg and 4.24 µM in the data set with HBeAg. The compound also yielded a CC50 at 144 h in data set [1] above 10 µM.

Consider `O=C(NC1CCC2(CC1)CCN(c1nc3cc(Cl)ccc3o1)CC2)C1CCS(=O)(=O)C1` (stereo not drawn) [Example 90, N-[3-(5-chloro-1,3-benzoxazol-2-yl)-3-azaspiro[5.5]undecan-9-yl]-1,1-dioxo-thiolane-3-carboxamide], for which the values for the IC50 in the data set on HBsAg and in the data set on HBeAg were 1.35 µM and 1.08 µM, respectively. In data set [1], the cytotoxic concentration (CC50) at 144 h stood at 73.9 µM.

In the case of `NS(=O)(=O)c1ccc(C(=O)NC2CCC3(CC2)CCN(c2nc4cc(Cl)ccc4o2)CC3)o1` [Example 108, N-[3-(5-chloro-1,3-benzoxazol-2-yl)-3-azaspiro[5.5]undecan-9-yl]-5-sulfamoyl-furan-2-carboxamide], the values for the IC50 with HBsAg and with HBeAg were 6.69 µM and 4.18 µM, respectively. The CC50 at 144 h in data set [1] was above 10 µM.

On to `Cc1ccc(S(=O)(=O)N2CCC(CC(=O)NCC3CCN(c4nc5cc(Cl)ccc5o4)CC3)CC2)cc1` [Example 20, N-[[1-(5-chloro-1,3-benzoxazol-2-yl)-4-piperidyl]methyl]-2-[1-(p-tolylsulfonyl)-4-piperidyl]acetamide], for which the IC50 was found to be 3.88 µM with HBsAg and 4.05 µM with HBeAg. For the same compound, in data set [1], the CC50 at 144 h was above 10 µM.

On to `O=C(NC1CCC2(CC1)CN(c1nc3cc(Cl)ccc3o1)C2)c1ccc(C(F)(F)F)o1` [Example 70, N-[2-(5-chloro-1,3-benzoxazol-2-yl)-2-azaspiro[3.5]nonan-7-yl]-5-(trifluoromethyl)furan-2-carboxamide], for which the IC50 came out at 6.09 µM in the data set on HBsAg and 2.96 µM with HBeAg. The compound also registered a CC50 at 144 h in data set [1] above 100 µM.

Consider `CC1(C(=O)NC2CCC3(CC2)CCN(c2nc4cc(Cl)ccc4o2)CC3)CCSCC1` [Example 87, N-[3-(5-chloro-1,3-benzoxazol-2-yl)-3-azaspiro[5.5]undecan-9-yl]-4-methyl-tetrahydrothiopyran-4-carboxamide], for which the half-maximal inhibitory concentration (IC50) is 1.43 µM with HBsAg and 1.13 µM with HBeAg. This compound also gave a CC50 at 144 h in data set [1] above 100 µM.

`O=C(NC1CC2(C1)CN(c1nc3cc(Cl)ccc3o1)C2)c1ccc(S(=O)(=O)CC2CC2)o1` [Example 65, N-[2-(5-chloro-1,3-benzoxazol-2-yl)-2-azaspiro[3.3]heptan-6-yl]-5-(cyclopropylmethylsulfonyl)furan-2-carboxamide]: the half-inhibitory concentration (IC50) is 0.806 µM with HBsAg and 1.07 µM in the data set with HBeAg. In addition, it took 92.3 µM to reach half-maximal cytotoxicity in data set [1] (CC50 at 144 h).

As to `O=C(NC1CC2(C1)CN(c1nc3cc(Cl)ccc3o1)C2)C1CCS(=O)(=O)CC1` [Example 36, N-[2-(5-chloro-1,3-benzoxazol-2-yl)-2-azaspiro[3.3]heptan-6-yl]-1,1-dioxo-thiane-4-carboxamide], the IC50 was determined as 8.28 µM in the data set with HBsAg and 4.03 µM with HBeAg. This compound gave a half-maximal cytotoxic concentration (CC50) at 144 h in data set [1] above 100 µM.

Consider `O=C(NC1CCC2(CC1)CCN(c1nc3cc(Cl)ccc3o1)CC2)C1CS(=O)(=O)C1` [Example 88, N-[3-(5-chloro-1,3-benzoxazol-2-yl)-3-azaspiro[5.5]undecan-9-yl]-1,1-dioxo-thietane-3-carboxamide], for which the IC50 with HBsAg turned out to be 1.52 µM; with HBeAg, 1.25 µM. In addition, the CC50 at 144 h in data set [1] was determined as 28.9 µM.

With `CC1(C(=O)NC2CCC3(CC2)CCN(c2nc4cc(Cl)ccc4o2)CC3)CCS(=O)(=O)C1` (stereo not drawn) [Example 93, N-[3-(5-chloro-1,3-benzoxazol-2-yl)-3-azaspiro[5.5]undecan-9-yl]-3-methyl-1,1-dioxo-thiolane-3-carboxamide], the half-inhibitory concentration (IC50) amounted to 1.82 µM with HBsAg and 1.19 µM in the data set on HBeAg. In data set [1], the CC50 at 144 h was above 100 µM.

Turning to `CS(=O)(=O)c1ccc(C(=O)NC2CCC3(CC2)CCN(c2nc4cc(Cl)ccc4o2)CC3)o1` [Example 113, N-[3-(5-chloro-1,3-benzoxazol-2-yl)-3-azaspiro[5.5]undecan-9-yl]-5-methylsulfonyl-furan-2-carboxamide], the IC50 with HBsAg came to 3.59 µM; in the data set on HBeAg, 3.27 µM. Further, the CC50 at 144 h in data set [1] is above 100 µM.

For `CCS(=O)(=O)c1ccc(C(=O)NC2CCC3(CC2)CCN(c2nc4cc(Cl)ccc4o2)CC3)o1` [Example 117, N-[3-(5-chloro-1,3-benzoxazol-2-yl)-3-azaspiro[5.5]undecan-9-yl]-5-ethylsulfonyl-furan-2-carboxamide], the IC50 in the data set on HBsAg amounted to 2.37 µM; with HBeAg, 2.91 µM. The compound also showed a cytotoxic concentration (CC50) at 144 h in data set [1] above 100 µM.

Take `O=C(NC1CCC2(CC1)CCN(c1nc3ccc(Cl)cc3o1)CC2)C1CCS(=O)(=O)C1` (stereo not drawn) [Example 94, N-[3-(6-chloro-1,3-benzoxazol-2-yl)-3-azaspiro[5.5]undecan-9-yl]-1,1-dioxo-thiolane-3-carboxamide]: the IC50 was found to be 1.73 µM in the data set on HBsAg and 1.4 µM in the data set on HBeAg. In data set [1], this compound displayed a CC50 at 144 h of 90.6 µM.

As to `O=C(NC1CCC2(CC1)CCN(c1nc3ccc(Cl)cc3o1)CC2)C1CS(=O)(=O)C1` [Example 89, N-[3-(6-chloro-1,3-benzoxazol-2-yl)-3-azaspiro[5.5]undecan-9-yl]-1,1-dioxo-thietane-3-carboxamide], the half-maximal inhibitory concentration (IC50) in the data set on HBsAg worked out at 6.76 µM; in the data set with HBeAg it was 3.93 µM. In data set [1], this compound registered a CC50 at 144 h of 88.1 µM.

Take `COc1cc(C(=O)NC2CC3(C2)CN(c2nc4ccc(Cl)cc4o2)C3)ccn1` [Example 38, N-[2-(6-chloro-1,3-benzoxazol-2-yl)-2-azaspiro[3.3]heptan-6-yl]-2-methoxy-pyridine-4-carboxamide]: the IC50 was found to be 6.89 µM in the data set with HBsAg and 5.73 µM in the data set with HBeAg. Also, in data set [1], the cytotoxic concentration (CC50) at 144 h is above 10 µM.

For `O=C(NC1CC2(C1)CN(c1nc3cc(Cl)ccc3o1)C2)c1ccnc(S(=O)(=O)C2CC2)c1` [Example 66, N-[2-(5-chloro-1,3-benzoxazol-2-yl)-2-azaspiro[3.3]heptan-6-yl]-2-cyclopropylsulfonyl-pyridine-4-carboxamide], the IC50 in the data set on HBsAg amounted to 0.781 µM; in the data set on HBeAg it was 0.608 µM. The CC50 at 144 h in data set [1] stood at 84.2 µM.
